Test results reported in patent US20180078602A1, “METHODS AND COMPOSITIONS FOR EXTENDING THE EFFICACY OF PHOSPHODIESTERASE INHIBITORS FOR TREATING ERECTILE DYSFUNCTION, AND COMPOSITIONS FOR INHIBITING THE ONSET AND SLOWING THE PROGRESSION OF ERECTILE DYSFUNCTION” (K.L.R.M., LLC, priority 2015, published 2018).

How the values were obtained:
[1] = system: desmin; experiment: Desmin immunohistochemistry (smooth muscle cell content); type: in vivo, rat; details: treatment 2 months; with respect to 12 month-old non-treated controls
Procedure: (§1) Middle aged 10 month-old Fisher 344 rats (Harlan Sprague-Dawley, San Diego, Calif.) were divided in 4 groups and treated daily for two months as follows: • a) Control: 12 month-old at the time of death receiving by retrolingual administration vehicle only composed of 10% dimethyl sulfoxide, peanut butter and water (12 month); • b) Composition 4 (COMP 4): a combination of Muira Puama (45 mg/Kg B.W), Paullinia cupana (45 mg/Kg B.W), ginger (45 mg/Kg B.W) and […]) dissolved in vehicle; • c) Tadalafil (TAD): 2.5 mg/Kg B.W tadalafil dissolved in vehicle; • d) Composition 4+Tadalafil (COMP4+TAD): A combination of b and c at the same doses. Histochemistry and Immunohistochemistry. […] Quantitative Image Analysis was performed by computerized densitometry using ImagePro 7.1 software (Media Cybernetics, Silver Spring, Md.), coupled to an Olympus BHS microscope equipped with a Retiga digital camera. For Masson staining, 40× magnification pictures of the penis comprising half of the corpora cavernosa were analyzed for smooth muscle (stained in red) and collagen areas (stained in blue) excluding the sinusoidal spaces, and expressed as the smooth muscle/collagen ratio. For desmin and iNOS staining, 200× magnification pictures of the corpora cavernosa were analyzed in a computerized grid and expressed as a percentage of positive area versus total area of the corpora cavernosa. […]

[2] = system: rat corpora cavernosa smooth muscle/collagen; experiment: Masson trichrome staining, smooth muscle/collagen ratio by quantitative image analysis; type: in vivo; details: daily oral treatment 2 months; compared to 12 month-old control animals
Procedure: as §1

What does the source list for `CN1CC(=O)N2[C@H](c3ccc4c(c3)OCO4)c3[nH]c4ccccc4c3C[C@@H]2C1=O` [tadalafil]?
increase in desmin expression [1]: 38%; improvement of SMC/collagen ratio [2]: 60%
